Experimental data reported in patent US20070225339A1, “Compositions and methods for treating rheumatoid arthritis” (priority 2006, published 2007).
“Also recorded” adds a separate entry of the source.

Experiments:
patients with RA [1] = conditions: standard of care in patients with RA; cited from earlier work
patients with RA [2] = conditions: etanercept by injection in combination with methotrexate; cited from earlier work
[3] = tested on: subjects with unstable angina pectoris (UAP); test: Phase 2a study, safety and tolerability; assay type: in vivo, human; conditions: up to 40 mg/day for 5 days
Description: (§1) Five Phase 1 studies of VX-702 in healthy subjects and one Phase 2a study evaluating the safety and tolerability of VX-702 in subjects with unstable angina pectoris (UAP) who were scheduled for percutaneous coronary intervention with or without stenting were performed. Multiple dose studies of VX-702 were conducted for up to 28 days.

[4] = tested on: subjects with moderate or severe RA; test: Randomized, placebo-controlled, blinded twelve-week study in RA: responses to treatment (ACR, EULAR, DAS28); assay type: in vivo, human; conditions: for ACR 20 Response / EULAR Response (moderate or good) / Improvement from baseline in DAS28 / Mean reduction in morning stiffness / Percent Change in Swollen Joints / Percent Change in Tender Joints / Percent Improvement in DAS / Percent reduction in morning stiffness: End of Treatment (Week 12)
Description: VX-702 was examined in a randomized, placebo-controlled, multiple-dose, blinded, dose escalation study in 315 subjects with moderate or severe RA.
Subjects were divided into 3 approximately equal-sized groups of 100-105 subjects each. In one group, subjects received 5 mg VX-702 once daily or 2.5 mg VX-702 twice daily (total 5 mg/day) for twelve weeks. Another group received 10 mg VX-702 once daily for twelve weeks. Another group subjects received placebo once daily for twelve weeks.
The subjects had to be between the ages of 18-75 years (inclusive) and have active RA of six months of duration or longer by the ACR revised criteria. The subjects had to have a C-reactive protein (CRP) serum levels of greater than 2 mg/dL at time of randomization, a swollen joint count of eight or greater (of 28) and tender joint count of 10 or greater (of 28). The subjects had to have had no prior treatment with Disease modifying anti-rheumatic drugs (DMARD) therapy or inadequate response to DMARD therapy. If a subject had received prior therapy with an antibody or binding protein to TNF (anti-TNF) or with recombinant IL-1 receptor antagonist (IL-1Ra), the subject may have discontinued treatment due to tolerability reasons but not have discontinued treatment because of an inadequate response. Subjects must also have discontinued DMARD therapy (except for sulfasalazine or hydroxychloroquine) for at least one month prior to randomization. Subjects could receive one NSAID and/or prednisone (≦10 mg/day) if they had been treated at a stable dose for at least one month prior to randomization.
Responses to treatment were evaluated by changes in ACR (e.g., ACR20) or EULAR criteria. Responses to treatment were measured at Weeks 2, 4, 6, 8, 10 and 12. Safety evaluations were also conducted at these time points. Holter monitoring and ECG were not performed at every time point. Four weeks after completion of the study, responses to treatment and safety evaluations were conducted on subjects.
ACR Preliminary Definition of Improvement in RA (ACR20):
Required: ≧20% improvement in tender joint count • ≧20% improvement in swollen joint count And, at least 20% improvement in 3 of the following 5: • Subject pain assessment • Subject global assessment • Physician global assessment • Subject self-assessed disability
Acute-phase reactant (CRP or ESR)
The ACR50 and ACR70 responses require ≧50% and ≧70% improvement, respectively, in the same criteria as described for the ACR20 response.
EULAR is described in Fransen et al., Clinical and Experimental Rheumatology 23 (Suppl. 39): S93-99, 2005, which is hereby incorporated by reference in its entirety. EULAR is based on the Disease Activity Score (DAS), a clinical index of RA disease activity that combines information from swollen joints, tender joints, the acute phase response and general health into one continuous measure of rheumatoid inflammation. DAS28 is an index similar to the original DAS, consisting of a 28 tender joint count (range 0-28), a 28 swollen joint count (range 0-28), erythrocyte sedimentation rate (ESR) and an optional general health assessment on a visual analogue scale (range 0-100).

Oral bioavailability = conditions: in vivo
[5] = tested on: subjects with moderate or severe RA; test: Safety evaluations in the twelve-week RA study (adverse events, laboratory, Holter, ECG); assay type: in vivo, human; conditions: for Mean increase in QTcF: end of treatment, baseline approximately 400 msec, placebo −0.6 msec
Description: VX-702 was examined in a randomized, placebo-controlled, multiple-dose, blinded, dose escalation study in 315 subjects with moderate or severe RA. Subjects were divided into 3 approximately equal-sized groups of 100-105 subjects each. In one group, subjects received 5 mg VX-702 once daily or 2.5 mg VX-702 twice daily (total 5 mg/day) for twelve weeks. Another group received 10 mg VX-702 once daily for twelve weeks. Another group subjects received placebo once daily for twelve weeks. Safety evaluations of subjects in the study were also conducted. These included physical examinations, including vital signs measurements (including blood pressure, heart rate, respiration rate, and temperature); clinical laboratory assessments (hematology, chemistry, and urinalysis testing); creatinine clearance; adverse events; Holter monitoring and electrocardiogram (ECG) (12-lead). Responses to treatment were evaluated by changes in ACR (e.g., ACR20) or EULAR criteria. Responses to treatment were measured at Weeks 2, 4, 6, 8, 10 and 12. Safety evaluations were also conducted at these time points. Holter monitoring and ECG were not performed at every time point. Four weeks after completion of the study, responses to treatment and safety evaluations were conducted on subjects.

healthy subjects = test: Phase 1 studies, tolerability; assay type: in vivo, human
Description: as §1

For `CN(Cc1cnc2nc(N)nc(N)c2n1)c1ccc(C(=O)N[C@@H](CCC(=O)O)C(=O)O)cc1` [methotrexate], the “Response (improvement) often observed” value (patients with RA [1]) is listed as “less than 50%”.

In the case of etanercept, the Clinical remission rate (patients with RA [2]) is listed as 35%.

In the case of `NC(=O)c1ccc(N(C(N)=O)c2c(F)cccc2F)nc1-c1ccc(F)cc1F` [VX-702], the “Severity of adverse events” value [3] is reported as “mild to moderate severity”, the “ACR 20 Response” value ([4]; 5 mg VX-702 per day) is reported as 36% and the “EULAR Response (moderate or good)” value ([4]; 5 mg VX-702 per day) is reported as 40%. For the same molecule, the “Improvement from baseline in DAS28” value ([4]; 5 mg VX-702 per day) was −1.0, the “Mean reduction in morning stiffness” value ([4]; 5 mg VX-702 per day) was -98 min and the “Percent Change in Swollen Joints” value ([4]; 5 mg VX-702 per day) was −35%. For the same molecule, the “Percent Change in Tender Joints” value ([4]; 5 mg VX-702 per day) was −28%, the “Percent Improvement in DAS” value ([4]; 5 mg VX-702 per day) was −15% and the “Percent reduction in morning stiffness” value ([4]; 5 mg VX-702 per day) was −21.6%. For the same molecule, the “EULAR Response (moderate or good)” value ([4]; 5 mg VX-702 per day, listed as 702) was 40%, the “Symptoms of RA compared to placebo” value ([4]; 5 mg or 10 mg once daily for twelve weeks, Week 12) was “showed an improvement in their symptoms” and the “ACR 20 Response” value ([4]; 10 mg VX-702 once daily) was 40%. The “EULAR Response (moderate or good)” value ([4]; 10 mg VX-702 once daily) was 44%, the “Improvement from baseline in DAS28” value ([4]; 10 mg VX-702 once daily) was −1.2 and the “Mean reduction in morning stiffness” value ([4]; 10 mg VX-702 once daily) was -82 min. For the same molecule, the “Percent Change in Swollen Joints” value ([4]; 10 mg VX-702 once daily) was −46%, the “Percent Change in Tender Joints” value ([4]; 10 mg VX-702 once daily) was −36% and the “Percent Improvement in DAS” value ([4]; 10 mg VX-702 once daily) was −18%. The “Percent reduction in morning stiffness” value ([4]; 10 mg VX-702 once daily) was −2.7%, the “ACR20 response rates, dose-response” value ([4]; placebo, 5 mg, 10 mg, Jonckheere-Terpstra test, p=0.02) was “dose-dependent statistically significant increase” and the Oral bioavailability (Oral bioavailability) was “orally bioavailable”. For the same molecule, the “Premature discontinuations for adverse events, patients” value ([5]; 5 mg VX-702, twelve weeks) was 3%, the “Mean increase in QTcF” value ([5]; 5 mg group) was 3 ms and the “Premature discontinuations for adverse events, patients” value ([5]; 10 mg VX-702, twelve weeks) was 5%. The “Mean increase in QTcF” value ([5]; 10 mg group) was 6 ms, the “Effects on laboratory parameters, including liver function tests” value ([5]; 5 or 10 mg/day, twelve weeks) was “No clinically significant effects” and the “Severity of adverse events” value ([5]; 5 or 10 mg/day, twelve weeks) was “generally mild to moderate; also recorded: generally rated mild or moderate”. The Tolerability ([5]; 5 or 10 mg/day, twelve weeks) was “well tolerated”, the “Holter monitoring: ventricular ectopic activity and arrhythmias versus placebo” value ([5]; 24 to 72-hour continuous EKG, 6 times/patient) was “did not reveal an increased tendency for arrhythmias” and the “Skin disorders (rash, acne, itching), patients” value ([5]; VX-702-treated patients) was “approximately 9%”. For the same molecule, the “Isolated serious adverse events, patients” value ([5]; VX-702-treated patients (5 and 10 mg groups)) was 4-7%, the “Infections (upper respiratory infections, gastroenteritis, nasopharyngitis, etc), patients” value ([5]; VX-702-treated patients, placebo 5%) was 10% and the “Gastrointestinal disorders (nausea, vomiting, diarrhea), patients” value ([5]; VX-702-treated patients, placebo 6%) was 8%. For the same molecule, the “Patients with maximal increase in QTcF of >60 msec” value ([5]; at any point in the study) was “No patient”, the “Patients with ALT value above the upper limit of normal” value ([5]; at each on-treatment visit, placebo 1-2%) was 2-4% and the “Patients discontinued for elevations in liver function tests” value ([5]; twelve weeks) was “No patients”. For the same molecule, the “Patients with ALT elevation to three times the upper limit of normal” value ([5]; twelve weeks) was “No patient”, the “Severity of adverse events” value (healthy subjects; Phase 1, healthy subjects) was “mild or moderate severity” and the Tolerability (healthy subjects; dosages of up to 20 mg/day, multiple dose up to 28 days, healthy subjects) was “moderately to well tolerated”.
